# PubChem BioAssay (NCI)
#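 Each compound was tested at five concentrations against cells in 96-well plates for 48 hours. TGI marks complete inhibition of growth.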
# What was measured:
# Experiment in all cases: NCI-60 cell line screen, 48 h
# 786-0 renal = system: 786-0 renal
# A498 renal = system: A498 renal
# A549 NSCLC = system: A549 NSCLC
# ACHN renal = system: ACHN renal
# CAKI-1 renal = system: CAKI-1 renal
# CCRF-CEM leukemia = system: CCRF-CEM leukemia
# COLO 205 colon = system: COLO 205 colon
# DLD-1 colon = system: DLD-1 colon
# DMS 114 small cell lung = system: DMS 114 small cell lung
# DMS 273 small cell lung = system: DMS 273 small cell lung
# EKVX NSCLC = system: EKVX NSCLC
# HCC-2998 colon = system: HCC-2998 colon
# HCT-116 colon = system: HCT-116 colon
# HCT-15 colon = system: HCT-15 colon
# HL-60(TB) leukemia = system: HL-60(TB) leukemia
# HOP-18 NSCLC = system: HOP-18 NSCLC
# HOP-62 NSCLC = system: HOP-62 NSCLC
# HOP-92 NSCLC = system: HOP-92 NSCLC
# HT29 colon = system: HT29 colon
# IGROV1 ovarian = system: IGROV1 ovarian
# K-562 leukemia = system: K-562 leukemia
# KM12 colon = system: KM12 colon
# KM20L2 colon = system: KM20L2 colon
# LOX IMVI melanoma = system: LOX IMVI melanoma
# M14 melanoma = system: M14 melanoma
# M19-MEL melanoma = system: M19-MEL melanoma
# MALME-3M melanoma = system: MALME-3M melanoma
# MOLT-4 leukemia = system: MOLT-4 leukemia
# NCI-H226 lung = system: NCI-H226 lung
# NCI-H23 lung = system: NCI-H23 lung
# NCI-H460 lung = system: NCI-H460 lung
# NCI-H522 lung = system: NCI-H522 lung
# OVCAR-3 ovarian = system: OVCAR-3 ovarian
# OVCAR-4 ovarian = system: OVCAR-4 ovarian
# OVCAR-5 ovarian = system: OVCAR-5 ovarian
# OVCAR-8 ovarian = system: OVCAR-8 ovarian
# RPMI-8226 leukemia = system: RPMI-8226 leukemia
# RXF 393 renal = system: RXF 393 renal
# SF-268 CNS = system: SF-268 CNS
# SF-295 CNS = system: SF-295 CNS
# SF-539 CNS = system: SF-539 CNS
# SK-MEL-2 melanoma = system: SK-MEL-2 melanoma
# SK-MEL-28 melanoma = system: SK-MEL-28 melanoma
# SK-MEL-5 melanoma = system: SK-MEL-5 melanoma
# SK-OV-3 ovarian = system: SK-OV-3 ovarian
# SN12C renal = system: SN12C renal
# SNB-19 CNS = system: SNB-19 CNS
# SNB-75 CNS = system: SNB-75 CNS
# SNB-78 CNS = system: SNB-78 CNS
# SW-620 colon = system: SW-620 colon
# TK-10 renal = system: TK-10 renal
# U251 CNS = system: U251 CNS
# UACC-257 melanoma = system: UACC-257 melanoma
# UACC-62 melanoma = system: UACC-62 melanoma
# UO-31 renal = system: UO-31 renal
# BT-549 breast = system: BT-549 breast
# DU-145 prostate = system: DU-145 prostate
# HS 578T breast = system: HS 578T breast
# MCF7 breast = system: MCF7 breast
# MDA-MB-231 breast = system: MDA-MB-231 breast
# MDA-MB-435 = system: MDA-MB-435
# MDA-N = system: MDA-N
# NCI/ADR-RES ovarian = system: NCI/ADR-RES ovarian
# PC-3 prostate = system: PC-3 prostate
# SR leukemia = system: SR leukemia
# T-47D breast = system: T-47D breast
compound,measurement,setting,value
N#Cc1nc(C2OC(COC(=O)c3ccccc3)C(OC(=O)c3ccccc3)C2OC(=O)c2ccccc2)oc1N (centres undefined),TGI,786-0 renal,> 100 µM
same,TGI,A498 renal,> 100 µM
same,TGI,A549 NSCLC,> 100 µM
same,TGI,ACHN renal,> 100 µM
same,TGI,CAKI-1 renal,> 100 µM
same,TGI,CCRF-CEM leukemia,34.6 µM
same,TGI,COLO 205 colon,> 100 µM
same,TGI,DLD-1 colon,> 100 µM
same,TGI,DMS 114 small cell lung,> 100 µM
same,TGI,DMS 273 small cell lung,> 100 µM
same,TGI,EKVX NSCLC,> 100 µM
same,TGI,HCC-2998 colon,> 100 µM
same,TGI,HCT-116 colon,> 100 µM
same,TGI,HCT-15 colon,> 100 µM
same,TGI,HL-60(TB) leukemia,36.3 µM
same,TGI,HOP-18 NSCLC,> 100 µM
same,TGI,HOP-62 NSCLC,> 100 µM
same,TGI,HOP-92 NSCLC,> 100 µM
same,TGI,HT29 colon,> 100 µM
same,TGI,IGROV1 ovarian,> 100 µM
same,TGI,K-562 leukemia,> 100 µM
same,TGI,KM12 colon,> 100 µM
same,TGI,KM20L2 colon,> 100 µM
same,TGI,LOX IMVI melanoma,> 100 µM
same,TGI,M14 melanoma,> 100 µM
same,TGI,M19-MEL melanoma,> 100 µM
same,TGI,MALME-3M melanoma,> 100 µM
same,TGI,MOLT-4 leukemia,> 100 µM
same,TGI,NCI-H226 lung,> 100 µM
same,TGI,NCI-H23 lung,> 100 µM
same,TGI,NCI-H460 lung,> 100 µM
same,TGI,NCI-H522 lung,65.2 µM
same,TGI,OVCAR-3 ovarian,> 100 µM
same,TGI,OVCAR-4 ovarian,> 100 µM
same,TGI,OVCAR-5 ovarian,> 100 µM
same,TGI,OVCAR-8 ovarian,> 100 µM
same,TGI,RPMI-8226 leukemia,5.63 µM
same,TGI,RXF 393 renal,> 100 µM
same,TGI,SF-268 CNS,> 100 µM
same,TGI,SF-295 CNS,> 100 µM
same,TGI,SF-539 CNS,> 100 µM
same,TGI,SK-MEL-2 melanoma,93.7 µM
same,TGI,SK-MEL-28 melanoma,> 100 µM
same,TGI,SK-MEL-5 melanoma,40 µM
same,TGI,SK-OV-3 ovarian,> 100 µM
same,TGI,SN12C renal,> 100 µM
same,TGI,SNB-19 CNS,> 100 µM
same,TGI,SNB-75 CNS,> 100 µM
same,TGI,SNB-78 CNS,> 100 µM
same,TGI,SW-620 colon,> 100 µM
same,TGI,TK-10 renal,> 100 µM
same,TGI,U251 CNS,> 100 µM
same,TGI,UACC-257 melanoma,> 100 µM
same,TGI,UACC-62 melanoma,> 100 µM
same,TGI,UO-31 renal,66.8 µM
CC(C)C[C@H]1[C@@H](OCc2ccccc2)COS(=O)(=O)N1[C@H](C)c1ccccc1,TGI,786-0 renal,> 100 µM
same,TGI,A498 renal,> 100 µM
same,TGI,A549 NSCLC,> 100 µM
same,TGI,ACHN renal,> 100 µM
same,TGI,BT-549 breast,> 100 µM
same,TGI,CAKI-1 renal,> 100 µM
same,TGI,CCRF-CEM leukemia,> 100 µM
same,TGI,COLO 205 colon,> 100 µM
same,TGI,DU-145 prostate,> 100 µM
same,TGI,EKVX NSCLC,> 100 µM
same,TGI,HCC-2998 colon,> 100 µM
same,TGI,HCT-116 colon,> 100 µM
same,TGI,HCT-15 colon,> 100 µM
same,TGI,HL-60(TB) leukemia,> 69.7 µM
same,TGI,HOP-62 NSCLC,> 100 µM
same,TGI,HOP-92 NSCLC,> 100 µM
same,TGI,HS 578T breast,> 100 µM
same,TGI,HT29 colon,> 100 µM
same,TGI,IGROV1 ovarian,> 100 µM
same,TGI,K-562 leukemia,> 100 µM
same,TGI,KM12 colon,> 100 µM
same,TGI,LOX IMVI melanoma,> 100 µM
same,TGI,M14 melanoma,> 100 µM
same,TGI,MALME-3M melanoma,> 100 µM
same,TGI,MCF7 breast,> 100 µM
same,TGI,MDA-MB-231 breast,> 100 µM
same,TGI,MDA-MB-435,> 100 µM
same,TGI,MDA-N,> 100 µM
same,TGI,MOLT-4 leukemia,> 74.7 µM
same,TGI,NCI-H226 lung,> 100 µM
same,TGI,NCI-H23 lung,> 100 µM
same,TGI,NCI-H460 lung,> 100 µM
same,TGI,NCI-H522 lung,> 100 µM
same,TGI,NCI/ADR-RES ovarian,> 100 µM
same,TGI,OVCAR-3 ovarian,> 100 µM
same,TGI,OVCAR-4 ovarian,> 100 µM
same,TGI,OVCAR-5 ovarian,> 100 µM
same,TGI,OVCAR-8 ovarian,> 100 µM
same,TGI,PC-3 prostate,> 100 µM
same,TGI,RPMI-8226 leukemia,> 74.7 µM
same,TGI,RXF 393 renal,> 100 µM
same,TGI,SF-268 CNS,> 100 µM
same,TGI,SF-295 CNS,> 100 µM
same,TGI,SF-539 CNS,> 100 µM
same,TGI,SK-MEL-2 melanoma,> 100 µM
same,TGI,SK-MEL-28 melanoma,> 100 µM
same,TGI,SK-MEL-5 melanoma,> 64.4 µM
same,TGI,SK-OV-3 ovarian,> 100 µM
same,TGI,SN12C renal,> 100 µM
same,TGI,SNB-19 CNS,> 100 µM
same,TGI,SNB-75 CNS,> 100 µM
same,TGI,SR leukemia,> 83.7 µM
same,TGI,SW-620 colon,> 100 µM
same,TGI,T-47D breast,39.7 µM
same,TGI,TK-10 renal,> 100 µM
same,TGI,U251 CNS,> 67.7 µM
same,TGI,UACC-257 melanoma,> 100 µM
same,TGI,UACC-62 melanoma,> 100 µM
same,TGI,UO-31 renal,> 100 µM
